Consider 24 molecules from patent US11312719B2, “9-substituted amino triazolo quinazoline derivatives as adenosine receptor antagonists, pharmaceutical compositions and their use” (Merck Sharp & Dohme Corp., priority 2018, dated 2022).

One assay concerns the target human A2A receptors (Homo sapiens (Human), UniProt P29274). In words: A2A antagonism in cAMP cell-based assay (LANCE cAMP, HEK293). As to conditions: HEK293 cells expressing human A2A receptor. The gist of the method:
(§1)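 HEK293 cells expressing human A2A or A2B, in HBSS/5 mM HEPES/200 nM rolipram, were preincubated with compound (0.5–10,000 nM, 0.25% DMSO) 30 min at 37° C. Adenosine was then added from 300 nM (A2A) or 600 nM (A2B) solution for 30 min.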
Background: Time-resolved FRET reads energy transfer from a long-lived donor to a nearby acceptor.

The target in another assay is human A2B receptors (Homo sapiens (Human), UniProt P29275). In words: A2B antagonism in cAMP cell-based assay (LANCE cAMP, HEK293). As to conditions: HEK293 cells expressing human A2B receptor. The gist of the method:
as §1

As a reminder, the IC50 is the concentration that inhibits the measured activity by half. Higher therefore signals weaker potency in that assay.

Sequence of human A2A receptors (P29274 whole entry): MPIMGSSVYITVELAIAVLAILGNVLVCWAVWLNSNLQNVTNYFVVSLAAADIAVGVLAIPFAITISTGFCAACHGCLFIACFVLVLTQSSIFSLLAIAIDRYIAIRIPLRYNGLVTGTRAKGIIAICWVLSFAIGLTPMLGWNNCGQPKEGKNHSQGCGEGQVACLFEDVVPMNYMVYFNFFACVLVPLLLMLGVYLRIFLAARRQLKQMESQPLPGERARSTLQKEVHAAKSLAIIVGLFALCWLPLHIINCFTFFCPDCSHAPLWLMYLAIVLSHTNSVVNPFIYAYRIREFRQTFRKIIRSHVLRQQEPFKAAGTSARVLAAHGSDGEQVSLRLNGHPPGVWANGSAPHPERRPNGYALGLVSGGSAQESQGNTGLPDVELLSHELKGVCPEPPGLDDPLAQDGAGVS
Sequence of human A2B receptors (P29275 whole entry): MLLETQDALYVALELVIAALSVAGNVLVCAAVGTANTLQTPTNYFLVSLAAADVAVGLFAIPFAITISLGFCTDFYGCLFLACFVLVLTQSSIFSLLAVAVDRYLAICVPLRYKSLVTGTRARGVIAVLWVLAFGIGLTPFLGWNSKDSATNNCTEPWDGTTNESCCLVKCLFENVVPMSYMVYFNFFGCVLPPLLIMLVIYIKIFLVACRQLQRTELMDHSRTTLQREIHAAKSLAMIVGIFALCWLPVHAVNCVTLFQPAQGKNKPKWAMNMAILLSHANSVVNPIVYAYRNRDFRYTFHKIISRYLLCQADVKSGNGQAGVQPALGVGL

`COc1cc(F)cc2c1nc(N)n1nc([C@@H]3CCCN(c4cnn(C(C)(C)C(C)O)c4)C3)nc21` (single isomer, unassigned) [Example 245, (S or R)-3-(4-((R)-3-(5-amino-9-fluoro-7 methoxy-[1,2,4]triazolo[1,5-c]quinazolin-2-yl)piperidin-1-yl)-1H-pyrazol-1-yl)-3-methylbutan-2-ol]: the IC50 was determined as 2 nM against human A2A receptors and 25.8 nM against human A2B receptors.
Take `CC(O)C(C)(C)n1cc(N2CCC[C@@H](c3nc4c5cc(F)cc(F)c5nc(N)n4n3)C2)cn1` (single isomer, unassigned) [Example 246, (R or S)-3-(4-((R)-3-(5-amino-7,9-difluoro-[1,2,4]triazolo [1,5-c]quinazolin-2-yl)piperidin-1-yl)-1H-pyrazol-1-yl)-3-methylbutan-2-ol]: the IC50 was found to be 3.2 nM on human A2A receptors and 21.3 nM on human A2B receptors.
The like results for `CC(O)C(C)(C)n1cc(N2CCC[C@@H](c3nc4c5cc(F)cc(F)c5nc(N)n4n3)C2)cn1` (single isomer, unassigned) [Example 247, (S or R)-3-(4-((R)-3-(5-amino-7,9-difluoro-[1,2,4]triazolo [1,5-c]quinazolin-2-yl)piperidin-1-yl)-1H-pyrazol-1-yl)-3-methylbutan-2-ol] were, in that order, 4.5 nM and 21.8 nM.
The like results for `C[C@H]1CC[C@@H](c2nc3c4cc(F)cc(F)c4nc(N)n3n2)CN1c1cnn(C(C)(CO)CO)c1` (single isomer, unassigned) [Example 248, 2-(4-((2S,5R or 2R,5S)-5-(5-amino-7,9-difluoro-[1,2,4]triazolo[1,5-c]quinazolin-2-yl)-2-methylpiperidin-1-yl)-1H-pyrazol-1-yl)-2-methylpropane-1,3-diol] were, in that order, 1.4 nM and 8.4 nM.
The like results for `C[C@@H]1CC[C@H](c2nc3c4cc(F)cc(F)c4nc(N)n3n2)CN1c1cnn(C(C)(CO)CO)c1` (single isomer, unassigned) [Example 249, 2-(4-((2R,5S or 2S,5R)-5-(5-amino-7,9-difluoro-[1,2,4]triazolo[1,5-c]quinazolin-2-yl)-2-methylpiperidin-1-yl)-1H-pyrazol-1-yl)-2-methylpropane-1,3-diol] were, in that order, 26.9 nM and 197 nM.
In the case of `COc1cc2nc(N)n3nc(C4CCC(C)N(c5cnn(C(C)(CO)CO)c5)C4)nc3c2cc1F` (single isomer, unassigned) [Example 250, 2-(4-((2S,5R or 2R,5S)-5-(5-amino-9-fluoro-8-methoxy-[1,2,4]triazolo[1,5-c]quinazolin-2-yl)-2-methylpiperidin-1-yl)-1H-pyrazol-1-yl)-2-methylpropane-1,3-diol], the IC50 at human A2A receptors turned out to be 0.7 nM; against human A2B receptors, 4.9 nM.
With `COc1cc2nc(N)n3nc(C4CCC(C)N(c5cnn(C(C)(CO)CO)c5)C4)nc3c2cc1F` (single isomer, unassigned) [Example 251, 2-(4-((2R,5S or 2S,5R)-5-(5-amino-9-fluoro-8-methoxy-[1,2,4]triazolo[1,5-c]quinazolin-2-yl)-2-methylpiperidin-1-yl)-1H-pyrazol-1-yl)-2-methylpropane-1,3-diol], the IC50 against human A2A receptors is 39.5 nM; against human A2B receptors it was 387 nM.
As for `COc1cc2nc(N)n3nc(C4CCC(C)N(c5cnn(CC(C)(O)CO)c5)C4)nc3c2cc1F` (single isomer, unassigned) [Example 252], the concentration for half-maximal inhibition (IC50) at human A2A receptors was 95 nM; against human A2B receptors, 8160 nM.
The like results for `COc1cc2nc(N)n3nc(C4CCC(C)N(c5cnn(CC(C)(O)CO)c5)C4)nc3c2cc1F` (single isomer, unassigned) [Example 253, (S or R)-2-(4-((2S,5R or 2R,5S)-5-(5-amino-9-fluoro-8-methoxy-[1,2,4]triazolo[1,5-c]quinazolin-2-yl)-2-methylpiperidin-1-yl)-1H-pyrazol-1-yl)-2-methylpropane-1,2-diol] were, in that order, 123 nM and more than 10000 nM.
Regarding `COc1cc2nc(N)n3nc(C4CCC(C)N(c5cnn(CC(C)(O)CO)c5)C4)nc3c2cc1F` (single isomer, unassigned) [Example 254], the figures for the IC50 on human A2A receptors and against human A2B receptors were 1.5 nM and 10 nM, respectively.
The like results for `COc1cc2nc(N)n3nc(C4CCC(C)N(c5cnn(CC(C)(O)CO)c5)C4)nc3c2cc1F` (single isomer, unassigned) [Example 255] were, in that order, 2.6 nM and 28.8 nM.
With `CC1CCC(c2nc3c4cc(F)cc(F)c4nc(N)n3n2)CN1c1cnn(CC(C)(O)CO)c1` (single isomer, unassigned) [Example 256], the results for the IC50 against human A2A receptors and against human A2B receptors were 241 nM and 3890 nM, respectively.
In turn, `CC1CCC(c2nc3c4cc(F)cc(F)c4nc(N)n3n2)CN1c1cnn(CC(C)(O)CO)c1` (single isomer, unassigned) [Example 257, (S or R)-2-(4-((2S,5R or 2R,5S)-5-(5-amino-7,9-difluoro-[1,2,4]triazolo[1,5-c]quinazolin-2-yl)-2-methylpiperidin-1-yl)-1H-pyrazol-1-yl)-2-methylpropane-1,2-diol] registered a half-inhibitory concentration (IC50) on human A2A receptors of 541 nM. Moreover, the “A2B cAMP % Inh. @10000 nM” value at human A2B receptors (at 10000 nM) is 25% Inh.
For `CC1CCC(c2nc3c4cc(F)cc(F)c4nc(N)n3n2)CN1c1cnn(CC(C)(O)CO)c1` (single isomer, unassigned) [Example 258, (R or S)-2-(4-((2R,5S or 2S,5R)-5-(5-amino-7,9-difluoro-[1,2,4]triazolo[1,5-c]quinazolin-2-yl)-2-methylpiperidin-1-yl)-1H-pyrazol-1-yl)-2-methylpropane-1,2-diol], the 50% inhibitory concentration (IC50) against human A2A receptors was 2.3 nM; at human A2B receptors it was 8.1 nM.
The like results for `CC1CCC(c2nc3c4cc(F)cc(F)c4nc(N)n3n2)CN1c1cnn(CC(C)(O)CO)c1` (single isomer, unassigned) [Example 259, (S or R)-2-(4-((2R,5S or 2S,5R)-5-(5-amino-7,9-difluoro-[1,2,4]triazolo[1,5-c]quinazolin-2-yl)-2-methylpiperidin-1-yl)-1H-pyrazol-1-yl)-2-methylpropane-1,2-diol] were, in that order, 2.3 nM and 11.8 nM.
Take `CC1CCC(c2nc3c4cc(F)cc(F)c4nc(N)n3n2)CN1c1cnn(CC(C)(CO)CO)c1` (single isomer, unassigned) [Example 260]: the 50% inhibitory concentration (IC50) stood at 1.7 nM against human A2A receptors and 10 nM against human A2B receptors.
Consider `CC1CCC(c2nc3c4cc(F)cc(F)c4nc(N)n3n2)CN1c1cnn(CC(C)(CO)CO)c1` (single isomer, unassigned) [Example 261], for which the concentration for half-maximal inhibition (IC50) on human A2A receptors came to 86.6 nM; on human A2B receptors it was 1470 nM.
The like results for `COc1cc2nc(N)n3nc(C4CCC(C)N(c5cnn(CC(C)(C)N)c5)C4)nc3c2cc1F` (single isomer, unassigned) [Example 262, 2-((3R,6S or 3S,6R)-1-(1-(2-amino-2-methylpropyl)-1H-pyrazol-4-yl)-6-methylpiperidin-3-yl)-9-fluoro-8-methoxy-[1,2,4]triazolo[1,5-c]quinazolin-5-amine] were, in that order, 2.2 nM and 23.9 nM.
The like results for `COc1cc2nc(N)n3nc(C4CCC(C)N(c5cnn(CC(C)(C)N)c5)C4)nc3c2cc1F` (single isomer, unassigned) [Example 263, 2-((3S,6R or 3R,6S)-1-(1-(2-amino-2-methylpropyl)-1H-pyrazol-4-yl)-6-methylpiperidin-3-yl)-9-fluoro-8-methoxy-[1,2,4]triazolo[1,5-c]quinazolin-5-amine] were, in that order, 26 nM and 511 nM.
The like results for `COc1cc2nc(N)n3nc(C4CCC(C)N(c5cnn(C(C)(C)C(C)O)c5)C4)nc3c2cc1F` (single isomer, unassigned) [Example 264, (R or S)-3-(4-((2S,5R or 2R,5S)-5-(5-amino-9-fluoro-8-methoxy-[1,2,4]triazolo[1,5-c]quinazolin-2-yl)-2-methylpiperidin-1-yl)-1H-pyrazol-1-yl)-3-methylbutan-2-ol] were, in that order, 3 nM and 14.3 nM.
On to `COc1cc2nc(N)n3nc(C4CCC(C)N(c5cnn(C(C)(C)C(C)O)c5)C4)nc3c2cc1F` (single isomer, unassigned) [Example 265, (S or R)-3-(4-((2S,5R or 2R,5S)-5-(5-amino-9-fluoro-8-methoxy-[1,2,4]triazolo[1,5-c]quinazolin-2-yl)-2-methylpiperidin-1-yl)-1H-pyrazol-1-yl)-3-methylbutan-2-ol], for which the half-maximal inhibitory concentration (IC50) was 1.3 nM on human A2A receptors and 4.5 nM against human A2B receptors.
The like results for `COc1cc2nc(N)n3nc(C4CCC(C)N(c5cnn(C(C)(C)C(C)O)c5)C4)nc3c2cc1F` (single isomer, unassigned) [Example 266, (R or S)-3-(4-((2R,5S or 2S,5R)-5-(5-amino-9-fluoro-8-methoxy-[1,2,4]triazolo[1,5-c]quinazolin-2-yl)-2-methylpiperidin-1-yl)-1H-pyrazol-1-yl)-3-methylbutan-2-ol] were, in that order, 64.2 nM and 580 nM.
The like results for `COc1cc2nc(N)n3nc(C4CCC(C)N(c5cnn(C(C)(C)C(C)O)c5)C4)nc3c2cc1F` (single isomer, unassigned) [Example 267, (S or R)-3-(4-((2R,5S or 2S,5R)-5-(5-amino-9-fluoro-8-methoxy-[1,2,4]triazolo[1,5-c]quinazolin-2-yl)-2-methylpiperidin-1-yl)-1H-pyrazol-1-yl)-3-methylbutan-2-ol] were, in that order, 175 nM and 1210 nM.
The like results for `COc1cc(F)cc2c1nc(N)n1nc(C3CCC(C)N(c4cnn(C(C)(C)C(C)O)c4)C3)nc21` (single isomer, unassigned) [Example 268, (R or S)-3-(4-((2S,5R or 2R,5S)-5-(5-amino-9-fluoro-7-methoxy-[1,2,4]triazolo[1,5-c]quinazolin-2-yl)-2-methylpiperidin-1-yl)-1H-pyrazol-1-yl)-3-methylbutan-2-ol] were, in that order, 0.7 nM and 4.7 nM.
